The results in this text go back to patent US6617124B1, “7-alkoxycoumarins as cytochrome p450 substrates” (SmithKline Beecham p.l.c., priority 1998, dated 2003).

A word on the melting point: it is the temperature of the solid-liquid transition. Take `CNCc1cc(=O)oc2cc(OC)ccc12`: the melting point is 109 to 109.5 °C.
As for `COc1ccc2c(CN(C)C)cc(=O)oc2c1`, the melting point was 97 °C.
